For assay [1], the target named is CUL4A-DDB1-BPB interaction (Homo sapiens (Human), UniProt Q16531). Kind of assay: AlphaLISA in vitro binding assay, CUL4A and DDB1-BPB binding. The settings on record: inhibition of CUL4A and DDB1-BPB binding. The gist of the method: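 Compound disruption of CUL4A binding to DDB1-BPB measured by AlphaLISA/AlphaScreen bead proximity in 384-well format. IC50 from nonlinear log(inhibitor)-vs-response curve fit.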

Assay [2] has as its system CUL1-dependent IκB-α degradation in Hela cells. Kind of assay: TNFα-induced CUL1/SCF-dependent IκBα degradation assay (Western blot). Format: cell-based. The settings on record: FIG. 6D. The method, then: FIG. 6D Western blotting of TNFα-induced […] IκBα degradation assay. Hela cells were seeded in 6-well plates. After 24 hours incubation, DMSO or indicated concentration of compounds were added with serum-free medium for 2 hours incubation. TNFα was added and cells were harvested, lysed in buffer containing 150 mM NaCl, 1% SDS, 10 mM Tris-HCl (pH 6.8), 1× complete protease inhibitor cocktail and 10 U Benzo nuclease. Equal amounts of proteins were resolved on 9% SDS-PAGE gel and IκBα levels were detected using anti-IκBα rabbit polyclonal antibody (Proteintech, 10268-1-AP). α-tubulin (Proteintech, #66031-1-Ig) was used as an internal loading control. TNFα-induced IκBα degradation was mediated by CUL1/SCF^βTrCP E3 ligase.

In assay [3] the test system is CUL4A-Vpr-dependent UNG2 degradation in Hela DOX-inducible-Vpr cells. The assay can be described thus: DOX-induced Vpr-mediated CUL4-dependent UNG2 degradation (Western blot). It is filed as cell-based. The following applies: FIG. 6C. The method, then:
FIG. 6C. Inhibition of DOX-induced Vpr-mediated CUL4-dependent UNG2 degradation by small molecule CUL4 inhibitors. In brief, Hela DOX-inducible-Vpr cells were seeded in 6-well plates. After 24 hours incubation, medium was changed to growth medium with 75 ng/ml doxycycline (DOX) overnight. On the third day, DMSO or indicated concentrations of compounds in serum-free medium containing DOX were added. The cells were lysed in buffer containing 150 mM NaCl, 1% SDS, 10 mM Tris-HCl (pH 6.8), 1× complete protease inhibitor cocktail and 10 U Benzo nuclease. Equal amounts of proteins were resolved on 9% SDS-PAGE gel and UNG2 levels were detected using anti-UNG2 (2C12) antibody (Origene #TA503563). α-tubulin (Proteintech, #66031-1-Ig) was used as an internal control. Normalized UNG2/α-tubulin ratio is higher in the compound treated sample than DMSO treated sample. (−) means that no change happens between compound treated sample with control sample.

In assay [4] the test system is CUL4A^high MDA-MB-468 breast cancer cells. The assay can be described thus: Cell killing in CUL4-high MDA-MB-468 cells (CellTiter Glo). It is filed as cell-based. The settings on record: Homo sapiens, 8 days treatment. The essentials:
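Cells seeded, treated after 24 h with DMSO or compound (0 to 20 μM). Medium and compound replaced every 48 h over 8 days. Viability measured by CellTiter-Glo luminescence; EC50 (50% killing) from log(inhibitor) vs response nonlinear fit.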

The target of the next assay is DDB1-BPB (Homo sapiens (Human), UniProt Q16531). Kind of assay: Microscale Thermophoresis (MST) binding to DDB1-BPB. The following applies: labeled DDB1-BPB, 25° C. The method, then:
Kd represents dissociation constant, which measures the affinity of small molecule binding to the scaffold DDB1-BPB by Microscale Thermophoresis (MST) (see Table 1, column 9). MST experiments were performed on a Monolith NT 115 system (Nano Temper Technologies, Munich, Germany) using 100% LED and 60% IR-laser power (https://physiology.case.edu/media/eq manuals/eq_manual_nano-temper_mst_starting_guide.pdf, hereby incorporated by reference in its entirety for all purposes). The labeling of DDB1-BPB ([…]) was performed in labeling buffer with NHS-Red reactive dye (30 μM) (Nanotemper), which reacts efficiently with the primary amines of the proteins to form a stable dye protein conjugates. The labeling reaction was carried out at RT. A 16-point serial dilution (1:1) was prepared for compound at the final concentration ranged from 200 µM to 3 nM in PBS containing 0.05% tween. The samples were filled into Premium capillaries and measurements were conducted at 25° C. An equation implemented by the software MO-S002 MO Affinity Analysis, provided by the manufacturer, was used for fitting normalized fluorescence values at different concentrations of ligands.

Setting [5] is: 192 h, MDA-MB-468 cells, read-out: EC50 CUL4-High Cells (cell killing).

Like-named read-outs stand apart in the source and are kept apart here.

Chain of DDB1-BPB (Q16531 403-706): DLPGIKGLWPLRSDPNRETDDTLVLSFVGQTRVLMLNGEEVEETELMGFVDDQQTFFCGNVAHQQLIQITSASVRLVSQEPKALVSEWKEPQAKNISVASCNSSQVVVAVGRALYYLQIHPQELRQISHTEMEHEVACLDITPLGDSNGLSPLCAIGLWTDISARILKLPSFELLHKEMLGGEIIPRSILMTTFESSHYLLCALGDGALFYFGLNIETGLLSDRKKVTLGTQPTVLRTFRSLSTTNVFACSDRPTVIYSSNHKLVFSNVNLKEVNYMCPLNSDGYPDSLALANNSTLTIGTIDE
Chain of CUL4A-DDB1-BPB interaction (Q16531 403-706): as above

Turning to `CN(c1ccc(-c2nc(C(=O)O)cc3c2[nH]c2ccc(F)cc23)cc1)S(=O)(=O)c1ccccc1` [PA93], in assay [1], the IC50 came out at 210 ± 100 nM. In assay [2], the “Inhibition of TNF-α induced CUL1-dependent IκB-α degradation” value is “no inhibition”. The “Inhibition of CUL4A-Vpr-dependent UNG2 degradation” value in assay [3] is “robust inhibition”. The EC50 in assay [4] (setting [5]) amounted to 11100 nM. Also, on DDB1-BPB, the “Kd (MST)” value is “Insoluble”.
In the case of `CN(c1ccc(-c2nc(C(=O)O)cc3c2[nH]c2cccc(F)c23)cc1)S(=O)(=O)c1ccccc1` [PA99, 5-fluoro-1-(4-(N-methylphenylsulfonamido)phenyl)-9H-pyrido[3,4-b]indole-3-carboxylic acid], in assay [1], the IC50 worked out at 380 nM. In addition, in assay [2], the “Inhibition of TNF-α induced CUL1-dependent IκB-α degradation” value is recorded as “no inhibition”. Also, the “Inhibition of CUL4A-Vpr-dependent UNG2 degradation” value in assay [3] is on record as “robust inhibition”. The concentration for a half-maximal effect (EC50) was 1180 nM in assay [4] (setting [5]) and 1180 nM in assay [4] (MDA-MB-468, 192 h, Table 3, 0 to 20 μM compound, read-out: EC50 OF cell killing, MDA-MB-468). The Kd at DDB1-BPB is 2970 nM.

The record behind these values is patent publication US20250188078A1, “SMALL MOLECULE INHIBITORS OF THE CRL4 UBIQUITIN LIGASE” (Cornell University, priority 2022, published 2025).
